Common to all, as to test: AK assay 384-well format, Prestwick library screening
Experiment [1] deals with S. aureus strain USA300-0114. It counts as cell-based, Staphylococcus aureus. To be noted: 50 μM final drug concentration; for fold induction at 50 µM: Staphylococcus aureus, USA300, 3 h.
For experiment [2], the system named is E. faecium. It counts as cell-based, Enterococcus faecium. Conditions: 50 μM final drug concentration; for fold induction at 50 µM: Enterococcus faecium, 3 h.
Experiment [3] concerns K. pneumoniae. Format: cell-based, Klebsiella pneumoniae. To be noted: 50 μM final drug concentration; for fold induction at 50 µM: Klebsiella pneumoniae, 3 h.
Experiment [4] concerns A. baumannii strain 98-37-09. It counts as cell-based, Acinetobacter baumannii. Conditions: 50 μM final drug concentration; for fold induction at 50 µM: Acinetobacter baumannii, 983709, 3 h.
For experiment [5], the system named is E. coli. It counts as cell-based, Escherichia coli. To be noted: 50 μM final drug concentration; for fold induction at 50 µM: Escherichia coli, 3 h.
In experiment [6] the test system is E. cloacae. Format: cell-based, Enterobacter cloacae. To be noted: 50 μM final drug concentration; for fold induction at 50 µM: Enterobacter cloacae, 3 h.
Experiment [7] deals with P. aeruginosa. It counts as cell-based, Pseudomonas aeruginosa. Conditions: 50 μM final drug concentration; for fold induction at 50 µM: Pseudomonas aeruginosa, 3 h.
The mark [8] stands for this setting: 384-well format, cutoff for positive-scoring molecules 3-fold increase, read-out: AK-based Prestwick Library Screening Results, S. aureus (increase in extracellular AK activity).
Where [9] appears, read: 384-well format, cutoff for positive-scoring molecules 3-fold increase, read-out: AK-based Prestwick Library Screening Results, E. faecium (increase in extracellular AK activity).
[10] abbreviates: 384-well format, cutoff for positive-scoring molecules 3-fold increase, read-out: AK-based Prestwick Library Screening Results, K. pneumoniae (increase in extracellular AK activity).
[11] abbreviates: 384-well format, cutoff for positive-scoring molecules 3-fold increase, read-out: AK-based Prestwick Library Screening Results, A. baumannii (increase in extracellular AK activity).
Where [12] appears, read: 384-well format, cutoff for positive-scoring molecules 3-fold increase, read-out: AK-based Prestwick Library Screening Results, E. coli (increase in extracellular AK activity).
Setting [13] is: 384-well format, cutoff for positive-scoring molecules 3-fold increase, read-out: AK-based Prestwick Library Screening Results, E. cloacae (increase in extracellular AK activity).
[14] abbreviates: 384-well format, cutoff for positive-scoring molecules 3-fold increase, read-out: AK-based Prestwick Library Screening Results, P. aeruginosa (increase in extracellular AK activity).
[15] abbreviates: planktonic S. aureus, 384-well, cutoff for positive-scoring molecules 3-fold increase, read-out: AK-based Prestwick Library Screening Results: S. aureus (increase in extracellular AK activity).
The mark [16] stands for this setting: planktonic E. faecium, 384-well, cutoff for positive-scoring molecules 3-fold increase, read-out: AK-based Prestwick Library Screening Results: E. faecium (increase in extracellular AK activity).
Setting [17] is: planktonic K. pneumoniae, 384-well, cutoff for positive-scoring molecules 3-fold increase, read-out: AK-based Prestwick Library Screening Results: K. pneumoniae (increase in extracellular AK activity).
Where [18] appears, read: planktonic A. baumannii, 384-well, cutoff for positive-scoring molecules 3-fold increase, read-out: AK-based Prestwick Library Screening Results: A. baumannii (increase in extracellular AK activity).
Setting [19] is: planktonic E. coli, 384-well, cutoff for positive-scoring molecules 3-fold increase, read-out: AK-based Prestwick Library Screening Results: E. coli (increase in extracellular AK activity).
Setting [20] is: planktonic E. cloacae, 384-well, cutoff for positive-scoring molecules 3-fold increase, read-out: AK-based Prestwick Library Screening Results: E. cloacae (increase in extracellular AK activity).
Setting [21] is: planktonic P. aeruginosa, 384-well, cutoff for positive-scoring molecules 3-fold increase, read-out: AK-based Prestwick Library Screening Results: P. aeruginosa (increase in extracellular AK activity).
The mark [22] stands for this setting: cutoff for positive-scoring molecules 3-fold increase.

Counter-ions that a name gives are not always drawn. Like-named read-outs stand apart in the source and are kept apart here.

Consider Iobenguane sulfate, for which the “AK-based Prestwick Library Screening Results, S. aureus (increase in extracellular AK activity)” value in experiment [1] (planktonic S. aureus, cutoff for positive-scoring molecules 3-fold increase) is listed as 0.5. Moreover, in experiment [2] (planktonic E. faecium, cutoff for positive-scoring molecules 3-fold increase), the “AK-based Prestwick Library Screening Results, E. faecium (increase in extracellular AK activity)” value is listed as 0.9. For the same compound, in experiment [3] (planktonic K. pneumoniae, cutoff for positive-scoring molecules 3-fold increase), the “AK-based Prestwick Library Screening Results, K. pneumoniae (increase in extracellular AK activity)” value is reported as 0.5. For the same compound, the “AK-based Prestwick Library Screening Results, A. baumannii (increase in extracellular AK activity)” value in experiment [4] (planktonic A. baumannii, cutoff for positive-scoring molecules 3-fold increase) is 0.5. Moreover, in experiment [5] (planktonic E. coli, cutoff for positive-scoring molecules 3-fold increase), the “AK-based Prestwick Library Screening Results, E. coli (increase in extracellular AK activity)” value is given as 0.5. Further, the “AK-based Prestwick Library Screening Results, E. cloacae (increase in extracellular AK activity)” value in experiment [6] (planktonic E. cloacae, cutoff for positive-scoring molecules 3-fold increase) is 0.6. Besides, the “AK-based Prestwick Library Screening Results, P. aeruginosa (increase in extracellular AK activity)” value in experiment [7] (planktonic P. aeruginosa, cutoff for positive-scoring molecules 3-fold increase) turned out to be 0.4.

With `Cc1ccc(S(=O)(=O)NC(=O)NN2CCCCCC2)cc1` [Tolazamide], the fold induction at 50 µM in experiment [1] (planktonic, cutoff for positive 3-fold increase, read-out: AK-based Prestwick Library Screening Results, S. aureus (fold increase in extracellular AK activity)) turned out to be 1; in experiment [2] (planktonic, cutoff for positive 3-fold increase, read-out: AK-based Prestwick Library Screening Results, E. faecium (fold increase in extracellular AK activity)), 1; in experiment [3] (planktonic, cutoff for positive 3-fold increase, read-out: AK-based Prestwick Library Screening Results, K. pneumoniae (fold increase in extracellular AK activity)), 1.4; in experiment [4] (planktonic, cutoff for positive 3-fold increase, read-out: AK-based Prestwick Library Screening Results, A. baumannii (fold increase in extracellular AK activity)), 1.2; in experiment [5] (planktonic, cutoff for positive 3-fold increase, read-out: AK-based Prestwick Library Screening Results, E. coli (fold increase in extracellular AK activity)) it was 1.5; in experiment [6] (planktonic, cutoff for positive 3-fold increase, read-out: AK-based Prestwick Library Screening Results, E. cloacae (fold increase in extracellular AK activity)), 1.6. Also, the fold induction at 50 µM in experiment [7] (planktonic, cutoff for positive 3-fold increase, read-out: AK-based Prestwick Library Screening Results, P. aeruginosa (fold increase in extracellular AK activity)) was 1.4.

For the compound `NNC(=O)c1ccncc1` [Isoniazid], the fold induction at 50 µM in experiment [1] (setting [8]) amounted to 0.7; in experiment [2] (setting [9]), 1; in experiment [3] (setting [10]), 0.6; in experiment [4] (setting [11]) it was 0.6; in experiment [5] (setting [12]) it was 0.6; in experiment [6] (setting [13]), 0.6. Also, in experiment [7] (setting [14]), the fold induction at 50 µM stood at 0.6.

As for `Cc1ccc(Cl)c(Nc2ccccc2C(=O)O)c1Cl`, the fold induction at 50 µM was 0.6 in experiment [1] (setting [15]); 1.2 in experiment [2] (setting [16]); 1 in experiment [3] (setting [17]); 1.2 in experiment [4] (setting [18]); 1.1 in experiment [5] (setting [19]); 1.4 in experiment [6] (setting [20]). Also, the fold induction at 50 µM in experiment [7] (setting [21]) came out at 1.2.

Consider `Cc1cc(C(C)(C)C)c(O)c(C)c1CC1=NCCN1` [Oxymetazoline hydrochloride], for which the fold induction at 50 µM is 1.1 in experiment [1] (setting [15]); 1 in experiment [2] (setting [16]); 1.1 in experiment [3] (setting [17]); 1.4 in experiment [4] (setting [18]); 1.1 in experiment [5] (setting [19]); 1.3 in experiment [6] (setting [20]). Moreover, the fold induction at 50 µM in experiment [7] (setting [21]) was determined as 1.2.

As to `COc1ccc2cc([C@@H](C)C(=O)[O-])ccc2c1.[Na+]` [(R)-Naproxen sodium salt], the “AK-based Prestwick Library Screening Results, S. aureus (fold increase in extracellular AK activity)” value in experiment [1] (setting [22]) was found to be 1.0. In addition, the “AK-based Prestwick Library Screening Results, E. faecium (fold increase in extracellular AK activity)” value in experiment [2] (setting [22]) is 1.0. In addition, the “AK-based Prestwick Library Screening Results, K. pneumoniae (fold increase in extracellular AK activity)” value in experiment [3] (setting [22]) is on record as 1.0. The “AK-based Prestwick Library Screening Results, A. baumannii (fold increase in extracellular AK activity)” value in experiment [4] (setting [22]) turned out to be 1.1. The “AK-based Prestwick Library Screening Results, E. coli (fold increase in extracellular AK activity)” value in experiment [5] (setting [22]) was determined as 1.1. In experiment [6] (setting [22]), the “AK-based Prestwick Library Screening Results, E. cloacae (fold increase in extracellular AK activity)” value is listed as 1.7. For the same compound, the “AK-based Prestwick Library Screening Results, P. aeruginosa (fold increase in extracellular AK activity)” value in experiment [7] (setting [22]) is reported as 1.0.

Take `CCCCc1ccc2[nH]c(NC(=O)OC)nc2c1` [Parbendazole]: the fold induction at 50 µM came out at 0.7 in experiment [1] (planktonic S. aureus, […], read-out: AK-based Prestwick library screening result, S. aureus (fold increase in extracellular AK activity)); 0.6 in experiment [2] (planktonic E. faecium, […], read-out: AK-based Prestwick library screening result, E. faecium (fold increase in extracellular AK activity)); 0.7 in experiment [3] (planktonic K. pneumoniae, […], read-out: AK-based Prestwick library screening result, K. pneumoniae (fold increase in extracellular AK activity)); 0.8 in experiment [4] (planktonic A. baumannii, […], read-out: AK-based Prestwick library screening result, A. baumannii (fold increase in extracellular AK activity)); 0.7 in experiment [5] (planktonic E. coli, […], read-out: AK-based Prestwick library screening result, E. coli (fold increase in extracellular AK activity)); 1.2 in experiment [6] (planktonic E. cloacae, […], read-out: AK-based Prestwick library screening result, E. cloacae (fold increase in extracellular AK activity)). Further, the fold induction at 50 µM in experiment [7] (planktonic P. aeruginosa, […], read-out: AK-based Prestwick library screening result, P. aeruginosa (fold increase in extracellular AK activity)) was 0.7.

For `CN1CCN2c3ccccc3Cc3ccccc3C2C1` (stereo not shown) [Mianserine hydrochloride], the fold induction at 50 µM is 0.7 in experiment [1] (setting [8]); 0.9 in experiment [2] (setting [9]); 0.6 in experiment [3] (setting [10]); 0.8 in experiment [4] (setting [11]); 0.7 in experiment [5] (setting [12]); 0.7 in experiment [6] (setting [13]). Moreover, in experiment [7] (setting [14]), the fold induction at 50 µM amounted to 0.8.

Take `Fc1ccc(C(c2ccc(F)cc2)N2CCN(C/C=C/c3ccccc3)CC2)cc1` [Flunarizine dihydrochloride]: the fold induction at 50 µM in experiment [1] (setting [15]) was found to be 1.1; in experiment [2] (setting [16]), 1.3; in experiment [3] (setting [17]), 1.4; in experiment [4] (setting [18]), 2.6; in experiment [5] (setting [19]), 1.7; in experiment [6] (setting [20]) it was 1.6. Besides, the fold induction at 50 µM in experiment [7] (setting [21]) was determined as 1.3.

As to `Cc1c(-c2ccccc2)oc2c(C(=O)OCCN3CCCCC3)cccc2c1=O` [Flavoxate hydrochloride], the fold induction at 50 µM in experiment [1] (setting [8]) amounted to 0.6; in experiment [2] (setting [9]), 0.9; in experiment [3] (setting [10]), 0.6; in experiment [4] (setting [11]) it was 0.5; in experiment [5] (setting [12]), 0.5; in experiment [6] (setting [13]), 0.6. Further, the fold induction at 50 µM in experiment [7] (setting [14]) was 0.6.
